Test results: ChEMBL document CHEMBL3044860, “13-Deoxyitol A, a new insecticidal isoryanodane diterpene from the seeds of Itoa orientalis” (2009)

Legend:
Format in all cases: functional
Spodoptera litura [1] = assay: Contact toxicity against third-instar larval stage of Spodoptera litura applied topically measured per insect
Plutella xylostella [2] = assay: Antifeedant activity against third-instar larval stage of Plutella xylostella (diamondback moth) in cabbage mustard leaves
Nilaparvata lugens [3] = assay: Contact toxicity against macropterous female Nilaparvata lugens (brown planthopper) applied topically measured per insect
Sogatella furcifera [4] = assay: Antifeedant activity against fourth-instar nymph stage of Sogatella furcifera in tillering to booting period rice seedlings
Sogatella furcifera [5] = assay: Contact toxicity against macropterous female Sogatella furcifera applied topically measured per insect
Nilaparvata lugens [6] = assay: Antifeedant activity against fourth-instar nymph stage of Nilaparvata lugens (brown planthopper) in tillering to booting period rice seedlings
Plutella xylostella [7] = assay: Contact toxicity against third-instar larval stage of Plutella xylostella (diamondback moth) applied topically measured per insect
Spodoptera litura [8] = assay: Antifeedant activity against third-instar larval stage of Spodoptera litura in cabbage mustard leaves

Structure (SMILES) | LD50 (Spodoptera litura [1]) [µg] | AFC50 (Plutella xylostella [2]) [µg/mL] | LD50 (Nilaparvata lugens [3]) [µg] | AFC50 (Sogatella furcifera [4]) [µg/mL] | LD50 (Sogatella furcifera [5]) [µg] | AFC50 (Nilaparvata lugens [6]) [µg/mL] | LD50 (Plutella xylostella [7]) [µg] | AFC50 (Spodoptera litura [8]) [µg/mL]
CC(C)[C@@H]1[C@H](O)[C@H]2C(C)(CO)[C@@]3(O)CC[C@@H](C)[C@H]3[C@H]3OC[C@]1(C)[C@]32O (stereo not given in full) [13-DEOXYITOL A] | 0.22 | 29.3 | >2 | 23.5 | >2 | 38.9 | 0.22 | 50.1
CC(C)[C@@]1(O)[C@H](O)[C@@H]2[C@@]3(O)[C@@H]4O[C@@](O)(C[C@@]2(C)[C@@]2(O)CC[C@@H](C)[C@@H]42)[C@]31C [ITOL A] | 0.22 | 22.5 | >2 | 29.3 | >2 | 34.8 | 0.22 | 47.5
C/C=C(\C)C(=O)O[C@H]1C[C@@H](OC(C)=O)[C@@]2(C(=O)OC)CO[C@H]3[C@@H](O)[C@@](C)([C@]45O[C@@]4(C)[C@@H]4C[C@H]5O[C@@H]5OC=C[C@@]54O)[C@H]4[C@]1(CO[C@]4(O)C(=O)OC)[C@@H]32 [AZADIRACHTIN A] | – | 9.3 | – | 7 | – | 7.5 | – | 9.8
